{"source": "ChEMBL document CHEMBL1201862", "about": "“PubChem BioAssay data set” (2004)", "type_in_all_cases": "functional", "key": {"Aurora kinase A": {"target": "Aurora kinase A (Homo sapiens, UniProt O14965)"}, "[1]": {"target": "G protein-coupled receptor kinase 5 (Homo sapiens, UniProt P34947)", "sequence (P34947 whole entry)": "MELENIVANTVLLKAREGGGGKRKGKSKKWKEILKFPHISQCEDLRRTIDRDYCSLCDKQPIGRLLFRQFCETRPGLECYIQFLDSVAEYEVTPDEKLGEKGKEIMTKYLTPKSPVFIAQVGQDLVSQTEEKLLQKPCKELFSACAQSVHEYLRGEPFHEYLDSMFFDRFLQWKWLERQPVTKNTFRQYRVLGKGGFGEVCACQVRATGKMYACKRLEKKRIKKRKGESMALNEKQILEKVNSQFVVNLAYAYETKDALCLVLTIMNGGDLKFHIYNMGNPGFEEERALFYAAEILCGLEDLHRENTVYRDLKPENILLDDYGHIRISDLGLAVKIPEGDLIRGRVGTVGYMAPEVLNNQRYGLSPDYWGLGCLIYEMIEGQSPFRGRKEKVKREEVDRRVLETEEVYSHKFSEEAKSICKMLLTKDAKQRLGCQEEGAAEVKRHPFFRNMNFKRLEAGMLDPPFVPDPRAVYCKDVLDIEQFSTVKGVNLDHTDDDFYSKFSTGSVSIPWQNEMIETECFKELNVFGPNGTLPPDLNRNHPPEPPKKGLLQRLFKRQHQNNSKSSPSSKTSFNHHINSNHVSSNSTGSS", "assay": "Navigating the Kinome. Panel member name: GPRK5"}, "[2]": {"target": "Rho-associated protein kinase 1 (Homo sapiens, UniProt Q13464)", "sequence (Q13464 whole entry)": "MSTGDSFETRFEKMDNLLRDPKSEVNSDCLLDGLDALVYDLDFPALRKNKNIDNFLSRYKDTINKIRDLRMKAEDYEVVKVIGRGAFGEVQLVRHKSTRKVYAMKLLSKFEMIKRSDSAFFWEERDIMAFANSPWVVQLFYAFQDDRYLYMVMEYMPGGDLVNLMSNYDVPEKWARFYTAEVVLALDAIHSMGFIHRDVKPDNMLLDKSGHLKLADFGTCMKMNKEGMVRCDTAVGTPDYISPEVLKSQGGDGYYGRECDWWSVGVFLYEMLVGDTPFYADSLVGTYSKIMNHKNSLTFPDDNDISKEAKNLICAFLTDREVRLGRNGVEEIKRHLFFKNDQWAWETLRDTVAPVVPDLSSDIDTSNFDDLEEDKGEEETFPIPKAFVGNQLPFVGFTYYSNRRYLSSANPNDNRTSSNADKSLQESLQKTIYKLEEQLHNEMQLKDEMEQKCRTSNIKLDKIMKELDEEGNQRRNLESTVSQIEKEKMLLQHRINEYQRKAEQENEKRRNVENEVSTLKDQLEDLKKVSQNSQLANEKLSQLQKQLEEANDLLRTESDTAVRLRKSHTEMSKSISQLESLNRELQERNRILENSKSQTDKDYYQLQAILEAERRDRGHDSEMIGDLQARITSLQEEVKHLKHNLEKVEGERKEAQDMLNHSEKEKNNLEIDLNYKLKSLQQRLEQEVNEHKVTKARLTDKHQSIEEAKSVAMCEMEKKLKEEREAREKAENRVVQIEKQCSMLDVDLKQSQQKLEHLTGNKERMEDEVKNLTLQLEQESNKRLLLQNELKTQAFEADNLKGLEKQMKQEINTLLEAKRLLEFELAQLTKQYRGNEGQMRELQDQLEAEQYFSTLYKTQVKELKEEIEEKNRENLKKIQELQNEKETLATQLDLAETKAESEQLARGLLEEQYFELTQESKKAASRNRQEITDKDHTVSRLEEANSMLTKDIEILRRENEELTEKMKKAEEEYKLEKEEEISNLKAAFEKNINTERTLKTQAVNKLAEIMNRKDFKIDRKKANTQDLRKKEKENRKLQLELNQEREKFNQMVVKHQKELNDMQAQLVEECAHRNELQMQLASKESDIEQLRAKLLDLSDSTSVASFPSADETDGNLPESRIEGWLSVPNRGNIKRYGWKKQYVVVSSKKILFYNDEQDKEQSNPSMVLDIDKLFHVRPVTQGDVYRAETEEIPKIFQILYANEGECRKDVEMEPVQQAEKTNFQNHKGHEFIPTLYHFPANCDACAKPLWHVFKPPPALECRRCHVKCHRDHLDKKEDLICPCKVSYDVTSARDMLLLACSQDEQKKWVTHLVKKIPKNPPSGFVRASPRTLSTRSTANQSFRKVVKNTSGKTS"}, "[3]": {"target": "Cyclin-dependent kinase 8 (Homo sapiens, UniProt P49336)", "sequence (P49336 whole entry)": "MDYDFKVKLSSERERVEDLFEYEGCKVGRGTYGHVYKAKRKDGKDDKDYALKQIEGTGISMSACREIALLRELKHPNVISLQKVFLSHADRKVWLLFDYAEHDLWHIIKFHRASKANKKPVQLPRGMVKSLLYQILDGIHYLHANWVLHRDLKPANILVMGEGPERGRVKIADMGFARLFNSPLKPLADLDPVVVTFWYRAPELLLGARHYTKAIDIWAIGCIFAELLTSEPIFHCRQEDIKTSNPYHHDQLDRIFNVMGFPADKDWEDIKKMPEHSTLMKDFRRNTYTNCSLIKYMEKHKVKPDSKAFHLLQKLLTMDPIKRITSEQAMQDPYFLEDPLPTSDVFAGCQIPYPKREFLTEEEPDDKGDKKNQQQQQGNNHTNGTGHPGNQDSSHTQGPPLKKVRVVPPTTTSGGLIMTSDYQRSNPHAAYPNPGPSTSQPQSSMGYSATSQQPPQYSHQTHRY", "assay": "Navigating the Kinome. Panel member name: CDK8"}, "[4]": {"target": "cAMP-dependent protein kinase catalytic subunit alpha (Homo sapiens, UniProt P17612)"}, "[5]": {"target": "Mitogen-activated protein kinase kinase kinase kinase 4 (Homo sapiens, UniProt O95819)", "sequence (O95819 whole entry)": "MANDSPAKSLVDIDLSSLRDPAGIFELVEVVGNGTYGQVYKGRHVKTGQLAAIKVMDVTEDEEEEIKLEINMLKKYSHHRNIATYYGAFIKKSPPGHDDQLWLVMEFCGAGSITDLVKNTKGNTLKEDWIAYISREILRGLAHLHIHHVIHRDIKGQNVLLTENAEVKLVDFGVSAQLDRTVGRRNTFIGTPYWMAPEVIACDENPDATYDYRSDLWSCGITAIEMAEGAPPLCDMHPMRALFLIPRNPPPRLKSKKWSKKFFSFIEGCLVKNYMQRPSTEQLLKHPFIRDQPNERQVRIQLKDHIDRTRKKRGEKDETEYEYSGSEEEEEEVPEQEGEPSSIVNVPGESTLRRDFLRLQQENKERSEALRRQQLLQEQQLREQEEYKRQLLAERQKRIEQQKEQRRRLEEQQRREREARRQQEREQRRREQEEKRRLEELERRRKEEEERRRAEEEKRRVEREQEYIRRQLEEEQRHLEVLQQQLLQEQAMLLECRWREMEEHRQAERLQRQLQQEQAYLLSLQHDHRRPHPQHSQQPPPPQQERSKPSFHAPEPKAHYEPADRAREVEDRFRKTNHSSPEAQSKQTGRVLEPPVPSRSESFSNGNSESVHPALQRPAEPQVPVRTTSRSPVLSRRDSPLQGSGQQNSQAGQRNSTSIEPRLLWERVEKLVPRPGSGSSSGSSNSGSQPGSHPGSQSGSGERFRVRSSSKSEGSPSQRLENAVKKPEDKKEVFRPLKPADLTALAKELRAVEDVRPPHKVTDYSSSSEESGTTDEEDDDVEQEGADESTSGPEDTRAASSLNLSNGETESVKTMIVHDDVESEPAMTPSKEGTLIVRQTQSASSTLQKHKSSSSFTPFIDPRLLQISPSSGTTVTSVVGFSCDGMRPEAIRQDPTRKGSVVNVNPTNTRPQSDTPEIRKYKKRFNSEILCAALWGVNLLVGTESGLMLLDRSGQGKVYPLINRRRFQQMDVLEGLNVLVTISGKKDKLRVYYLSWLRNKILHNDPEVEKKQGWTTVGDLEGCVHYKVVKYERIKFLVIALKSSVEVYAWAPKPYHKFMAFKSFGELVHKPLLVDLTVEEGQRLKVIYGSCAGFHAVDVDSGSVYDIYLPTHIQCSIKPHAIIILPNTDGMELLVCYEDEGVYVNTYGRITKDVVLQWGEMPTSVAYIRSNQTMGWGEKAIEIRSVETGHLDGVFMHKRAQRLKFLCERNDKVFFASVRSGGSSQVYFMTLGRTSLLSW"}, "[6]": {"target": "Inhibitor of nuclear factor kappa-B kinase subunit epsilon (Homo sapiens, UniProt Q14164)", "sequence (Q14164 whole entry)": "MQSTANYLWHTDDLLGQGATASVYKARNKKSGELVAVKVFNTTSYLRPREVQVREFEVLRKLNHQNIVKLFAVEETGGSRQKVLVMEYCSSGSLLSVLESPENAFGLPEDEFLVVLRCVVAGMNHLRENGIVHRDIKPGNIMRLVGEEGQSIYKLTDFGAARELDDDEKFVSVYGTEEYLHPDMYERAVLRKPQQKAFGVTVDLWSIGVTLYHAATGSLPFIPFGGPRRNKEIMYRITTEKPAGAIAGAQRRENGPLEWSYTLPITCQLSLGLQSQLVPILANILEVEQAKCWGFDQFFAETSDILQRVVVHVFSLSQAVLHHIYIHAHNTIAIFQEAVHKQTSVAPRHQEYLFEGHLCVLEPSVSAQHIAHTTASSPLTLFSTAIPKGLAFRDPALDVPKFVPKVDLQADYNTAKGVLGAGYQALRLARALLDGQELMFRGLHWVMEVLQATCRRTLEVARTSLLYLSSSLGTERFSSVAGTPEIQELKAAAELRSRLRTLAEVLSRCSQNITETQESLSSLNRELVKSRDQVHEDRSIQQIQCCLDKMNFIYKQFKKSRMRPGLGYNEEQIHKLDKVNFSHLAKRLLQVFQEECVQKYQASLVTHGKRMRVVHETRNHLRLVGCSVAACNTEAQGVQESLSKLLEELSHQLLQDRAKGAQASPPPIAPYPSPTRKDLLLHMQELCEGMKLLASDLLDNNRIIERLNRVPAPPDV", "assay": "Navigating the Kinome. Panel member name: IKBKE"}, "[7]": {"target": "Calcium/calmodulin-dependent protein kinase type II subunit alpha (Homo sapiens, UniProt Q9UQM7)", "sequence (Q9UQM7 whole entry)": "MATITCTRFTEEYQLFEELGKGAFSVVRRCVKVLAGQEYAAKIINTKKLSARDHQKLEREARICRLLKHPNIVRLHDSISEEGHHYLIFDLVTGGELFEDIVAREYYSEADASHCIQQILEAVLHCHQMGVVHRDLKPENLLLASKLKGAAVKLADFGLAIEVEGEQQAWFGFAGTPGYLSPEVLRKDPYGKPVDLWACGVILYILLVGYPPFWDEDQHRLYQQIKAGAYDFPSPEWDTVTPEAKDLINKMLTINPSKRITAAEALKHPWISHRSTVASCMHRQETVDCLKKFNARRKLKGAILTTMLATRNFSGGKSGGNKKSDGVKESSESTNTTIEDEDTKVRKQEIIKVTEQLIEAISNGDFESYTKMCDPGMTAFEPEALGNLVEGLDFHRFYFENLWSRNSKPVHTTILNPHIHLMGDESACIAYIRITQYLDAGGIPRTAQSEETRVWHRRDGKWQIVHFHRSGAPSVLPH", "assay": "Navigating the Kinome. Panel member name: CAMK2A"}, "[8]": {"target": "C-C chemokine receptor type 6 (Homo sapiens, UniProt P51684)", "assay": "antagonism of CCR6 beta-arrestin recruitment – cell-based, luminescent beta-arrestin readout, dose response (AID 504728)"}, "[9]": {"target": "T1, Calpain-2 catalytic subunit (Sus scrofa, UniProt P43367)", "T1 sequence (P43367 whole entry)": "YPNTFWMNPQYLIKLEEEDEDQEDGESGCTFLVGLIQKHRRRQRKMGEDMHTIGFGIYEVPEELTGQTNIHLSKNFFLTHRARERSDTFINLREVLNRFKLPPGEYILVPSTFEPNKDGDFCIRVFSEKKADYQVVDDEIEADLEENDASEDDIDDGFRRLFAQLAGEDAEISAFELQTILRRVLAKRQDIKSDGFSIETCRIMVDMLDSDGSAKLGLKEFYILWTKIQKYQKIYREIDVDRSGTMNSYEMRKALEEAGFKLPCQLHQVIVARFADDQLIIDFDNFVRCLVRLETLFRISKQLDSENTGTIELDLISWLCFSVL", "assay": "m-calpain protease blockers, concentration series – biochemical, fluorogenic peptide substrate, dose response (AID 1420)"}, "[10]": {"target": "T2, Replicative DNA helicase DnaB (Mycobacterium tuberculosis, UniProt P9WMR3)", "T2 sequence (P9WMR3 whole entry)": "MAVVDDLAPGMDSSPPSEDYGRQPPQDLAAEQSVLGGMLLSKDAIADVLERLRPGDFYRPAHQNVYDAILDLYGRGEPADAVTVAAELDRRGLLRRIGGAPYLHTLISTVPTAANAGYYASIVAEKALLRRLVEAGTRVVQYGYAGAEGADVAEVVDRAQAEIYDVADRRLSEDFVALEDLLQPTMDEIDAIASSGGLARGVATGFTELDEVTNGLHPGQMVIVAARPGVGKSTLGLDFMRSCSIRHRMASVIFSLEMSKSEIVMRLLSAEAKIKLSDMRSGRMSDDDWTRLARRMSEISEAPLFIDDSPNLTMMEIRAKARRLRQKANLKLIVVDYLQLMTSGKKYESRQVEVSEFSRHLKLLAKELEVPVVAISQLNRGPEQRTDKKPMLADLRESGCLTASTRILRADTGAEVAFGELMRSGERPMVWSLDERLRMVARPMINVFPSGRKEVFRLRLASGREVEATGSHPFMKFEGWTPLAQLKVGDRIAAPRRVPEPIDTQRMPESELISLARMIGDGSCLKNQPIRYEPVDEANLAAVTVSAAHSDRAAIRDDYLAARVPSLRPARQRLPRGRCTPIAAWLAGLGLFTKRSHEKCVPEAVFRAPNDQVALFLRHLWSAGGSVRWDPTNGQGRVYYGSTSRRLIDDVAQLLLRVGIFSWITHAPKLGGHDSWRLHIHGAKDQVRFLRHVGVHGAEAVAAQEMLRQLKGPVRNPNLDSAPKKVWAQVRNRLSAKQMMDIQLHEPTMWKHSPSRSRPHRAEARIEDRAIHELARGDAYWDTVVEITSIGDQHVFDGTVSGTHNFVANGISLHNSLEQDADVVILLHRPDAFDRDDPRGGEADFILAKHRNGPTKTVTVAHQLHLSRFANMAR", "assay": "DnaB intein splicing inhibitors, dose response, biochemical, cell-free fluorescence (AID 449749)"}, "[11]": {"target": "T3, Sentrin-specific protease 7 (Homo sapiens, UniProt Q9BQF6)", "T3 sequence (Q9BQF6 whole entry)": "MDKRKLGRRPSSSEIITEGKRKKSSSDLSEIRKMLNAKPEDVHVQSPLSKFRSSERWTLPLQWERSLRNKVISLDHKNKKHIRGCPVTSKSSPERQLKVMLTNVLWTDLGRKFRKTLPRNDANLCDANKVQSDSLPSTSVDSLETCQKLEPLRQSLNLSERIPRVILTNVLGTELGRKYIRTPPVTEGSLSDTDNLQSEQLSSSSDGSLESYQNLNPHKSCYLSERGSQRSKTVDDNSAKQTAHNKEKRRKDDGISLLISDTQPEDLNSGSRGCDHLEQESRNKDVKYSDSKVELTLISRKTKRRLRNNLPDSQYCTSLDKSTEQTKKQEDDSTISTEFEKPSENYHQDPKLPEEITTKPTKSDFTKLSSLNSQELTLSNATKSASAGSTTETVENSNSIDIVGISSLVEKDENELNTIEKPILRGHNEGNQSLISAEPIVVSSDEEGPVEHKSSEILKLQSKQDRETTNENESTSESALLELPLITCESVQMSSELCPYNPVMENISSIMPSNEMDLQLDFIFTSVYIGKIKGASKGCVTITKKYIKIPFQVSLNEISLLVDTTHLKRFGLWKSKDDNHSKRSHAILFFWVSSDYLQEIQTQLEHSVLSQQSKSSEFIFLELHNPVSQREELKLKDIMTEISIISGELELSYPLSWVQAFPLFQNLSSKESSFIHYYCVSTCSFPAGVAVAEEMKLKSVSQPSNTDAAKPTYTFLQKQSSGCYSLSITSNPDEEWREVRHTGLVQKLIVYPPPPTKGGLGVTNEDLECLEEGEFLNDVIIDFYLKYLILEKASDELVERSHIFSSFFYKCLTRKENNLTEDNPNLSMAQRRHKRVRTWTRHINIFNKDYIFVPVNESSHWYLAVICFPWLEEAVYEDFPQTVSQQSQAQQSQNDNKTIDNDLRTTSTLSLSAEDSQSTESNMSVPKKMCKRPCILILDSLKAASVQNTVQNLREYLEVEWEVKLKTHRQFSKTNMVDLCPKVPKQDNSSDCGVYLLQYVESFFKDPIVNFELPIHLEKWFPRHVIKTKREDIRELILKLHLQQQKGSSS", "assay": "inhibition of human SENP7 cleavage activity – biochemical, luminescence, SAR follow-up (AID 504497)"}}, "note": "Activity calls are given as the source filed them.", "data": [{"smiles": "COc1cccc(C(C)NC(=O)c2ccc(-c3ccncc3)s2)c1", "note": "(configuration not stated)", "values": [{"measurement": "Ki", "setting": "Aurora kinase A", "value": "0.2 µM (active)"}, {"measurement": "Ki", "setting": "[1]", "value": "1 µM (active)"}, {"measurement": "Ki", "setting": "[2]", "value": "0.00126 µM (active)"}, {"measurement": "Ki", "setting": "[3]", "value": "3.16 µM (active)"}, {"measurement": "Ki", "setting": "[4]", "value": "0.0794 µM (active)"}, {"measurement": "Ki", "setting": "[5]", "value": "5.01 µM (active)"}, {"measurement": "Ki", "setting": "[6]", "value": "> 3.16 µM (inactive)"}, {"measurement": "Ki", "setting": "[7]", "value": "> 3.98 µM (inactive)"}]}, {"smiles": "O=Nc1c(-c2c(O)[nH]c3cc(Br)ccc23)[nH]c2ccccc12", "values": [{"measurement": "IC50", "setting": "[8]", "value": "> 66.6 µM (inactive)"}]}, {"smiles": "Cc1ccc(NC(=O)COc2cccc(/C=C3\\SC(=S)N(CCC(=O)O)C3=O)c2)cc1Cl", "values": [{"measurement": "IC50", "setting": "[9]", "value": "> 50 µM (not active)"}, {"measurement": "AC50", "setting": "[10]", "value": "6.13 µM (active)"}, {"measurement": "IC50", "setting": "[11]", "value": "12.7 µM (active)"}]}]}
